Data on one molecule can be found in patent publication US20240025886A1, “INHIBITORS OF IGF2BP1-RNA BINDING” (YISSUM RESEARCH DEVELOPMENT COMPANY OF THE HEBREW …, priority 2020, published 2024).

Test [1] addresses T1, Igf2bp1 binding to Kras 6 RNA (Homo sapiens, UniProt Q9NZI8).
T1 construct: Recombinant full-length Igf2bp1 protein; made in house; host or cells: E. coli BL21(DE3)
Description: Fluorescence polarization (FP) assay of Igf2bp1 binding to fluorescent Kras 6 RNA. Particulars: FP dose response; read-out: IC50 for inhibition of Igf2bp1 binding to Kras 6 RNA. As for the experimental part: For the small molecule screen, compounds were obtained from the collection maintained at the Grand Israel National Center for Personalized Medicine, consisting of molecules purchased from commercial vendors. Labelled RNA (10 nM) was incubated with recombinant Igf2bp1 protein (400 nM) in FAM-RNA buffer (10 mM Tris pH 8.0, 75 mM KCl, 0.5 mM EDTA, 1 mM DTT, 0.0188 U/μL RNAsin, 0.0005 μg/mL heparin, 0.0001 μg/μL tRNA, 0.01% Triton X-100, 3 mM MgCl2, 0.05% IGEPAL) at room temperature for 15 min. […] of this reaction mix was aliquoted with GNF WDII (USA) into wells of 1536 well plates, with a final concentration of […] compound or DMSO. The plates were spun down and read in a BMG Pherastar FS (Germany) plate reader plate reader, in FP mode with a 485/520/520 polarization filter, calibrated to 35 mP for free fluorescein with similar total intensity as experimental samples. […]
To determine the quality of the inventors screening assay, the Z′ factor for each plate was calculated with a Z′ factor greater than 0.5 indicating a robust assay suitable for high throughput screening. Compounds that altered the overall fluorescence intensity compared to controls were considered auto florescence and excluded from further analysis. […] Any small molecule that causes a change of more than three standard deviations from the mean is determined appropriate for further investigation.

Another test has as its target La (Homo sapiens, UniProt P05455). As to the kind of experiment: MST binding to control RNA binding protein La.
The target in the next test is T2, Igf2bp1 KH34 di-domain (Homo sapiens, UniProt Q9NZI8).
T2 construct: KH34 (P387-A574); 6xHis (N, cleaved yes); made in house; host or cells: E. coli BL21(DE3)
As to the kind of experiment: MST binding to Igf2bp1 di-domain KH34. As for the experimental part:
Recombinant full-length Igf2bp1 protein was labelled with RED-tris-NTA dye using a Monolith NT His-Tag Labelling Kit (NanoTemper) while RRM12, KH12 and KH34 di-domain peptides were labelled using the Protein Labeling Kit RED NHS 2nd generation (NanoTemper). Labelled proteins were spun at 15,000 g for 5 min to eliminate aggregates. All samples were 2× labelled protein mix of Igf2bp1 (200 nM) in PBST and were combined (1:1) with serial dilutions of compound or Kras6 RNA in binding buffer (10 mMTris pH=7.5, 100 mM NaCl, 0.1 mM EDTA, 0.06% IPEGAL, 0.02 μg/μL tRNA, 2 mM DTT, 0.1 μg/μL heparin) in final volume of 20 μL, room temperature for 15 min. Samples were then loaded into standard capillaries (NanoTemper) and read in the Monolith NT.115 scanner (NanoTemper) using the red filter with reading conditions of 95% LED power and 40% MST power, 5 sec fluorescence before, 30 sec MST on, 5 sec fluorescence after and 25 sec delay between samples. Results were analyzed using the MO Control software (NanoTemper) for curve fitting to KD.

Values joined by “and” are separate entries in the source; they are usually repeats but may differ in a detail not shown here. Equal values may be shown once.

T1 sequence (Q9NZI8 whole entry): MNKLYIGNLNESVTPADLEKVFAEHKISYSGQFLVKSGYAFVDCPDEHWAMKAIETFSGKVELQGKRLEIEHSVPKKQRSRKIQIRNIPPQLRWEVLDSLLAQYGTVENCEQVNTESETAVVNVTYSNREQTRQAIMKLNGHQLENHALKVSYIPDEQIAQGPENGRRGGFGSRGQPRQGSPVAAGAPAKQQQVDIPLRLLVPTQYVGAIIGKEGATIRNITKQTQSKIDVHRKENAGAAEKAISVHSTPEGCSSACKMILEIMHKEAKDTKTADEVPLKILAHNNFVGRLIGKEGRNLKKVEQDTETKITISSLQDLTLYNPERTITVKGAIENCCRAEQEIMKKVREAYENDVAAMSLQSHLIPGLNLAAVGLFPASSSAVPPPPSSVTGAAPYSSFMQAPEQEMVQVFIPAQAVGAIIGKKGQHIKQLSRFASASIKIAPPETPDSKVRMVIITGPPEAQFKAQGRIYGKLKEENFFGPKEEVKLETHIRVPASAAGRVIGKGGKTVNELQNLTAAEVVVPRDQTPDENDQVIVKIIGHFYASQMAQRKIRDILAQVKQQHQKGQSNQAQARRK
T2 sequence (Q9NZI8 387-574): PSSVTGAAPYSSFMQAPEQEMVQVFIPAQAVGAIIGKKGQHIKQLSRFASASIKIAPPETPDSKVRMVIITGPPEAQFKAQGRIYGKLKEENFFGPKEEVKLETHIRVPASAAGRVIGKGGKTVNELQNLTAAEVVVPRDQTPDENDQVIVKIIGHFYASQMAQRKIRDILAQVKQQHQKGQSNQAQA
Chain of La (P05455 whole entry): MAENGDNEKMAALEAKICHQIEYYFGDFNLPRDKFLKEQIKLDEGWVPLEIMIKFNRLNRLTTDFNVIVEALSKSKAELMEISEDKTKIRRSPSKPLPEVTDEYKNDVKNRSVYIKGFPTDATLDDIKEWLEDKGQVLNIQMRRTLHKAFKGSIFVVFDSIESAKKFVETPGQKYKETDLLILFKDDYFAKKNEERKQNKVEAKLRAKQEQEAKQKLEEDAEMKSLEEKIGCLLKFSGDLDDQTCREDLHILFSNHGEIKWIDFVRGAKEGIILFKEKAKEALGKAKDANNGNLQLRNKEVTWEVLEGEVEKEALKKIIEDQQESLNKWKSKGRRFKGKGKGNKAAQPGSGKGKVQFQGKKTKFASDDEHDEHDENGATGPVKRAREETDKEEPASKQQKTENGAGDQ

Regarding `O=C(c1ccc(Cn2cnnn2)cc1)N1CCCC(Nc2ccc3c(c2)OCO3)C1` (stereo not drawn) [Compound 7773], the 50% inhibitory concentration (IC50) in test [1] is ~30 µM and 15 to 36 µM. Moreover, the “Binding to La (MST)” value at La is given as “no binding”. This molecule also showed a Kd on Igf2bp1 KH34 di-domain of 7.2 µM.
